Source: patent US8324395B2, “Heterocyclic compound and use thereof” (Takeda Pharmaceutical Company Limited, priority 2007, dated 2012)

Experiments:
BRAF (V600E) kinase = biological target: T1, BRAF (V600E) kinase (Homo sapiens, UniProt P15056, V600E); experiment: Determination of BRAF (V600E) kinase inhibitory activity; assay type: biochemical; conditions: 1.0 μM test compound; BRAF (V600E) enzyme, GST-MEK1 (K96R) substrate, [γ-32P]ATP; read-out: Inhibitory rate (%) at 1.0 μM
T1 construct: Flag (N); made in house; host or cells: SF-21 insect cells, recombinant baculovirus BAC-V600E
T1 sequence (P15056 457-717 V600E limits assumed): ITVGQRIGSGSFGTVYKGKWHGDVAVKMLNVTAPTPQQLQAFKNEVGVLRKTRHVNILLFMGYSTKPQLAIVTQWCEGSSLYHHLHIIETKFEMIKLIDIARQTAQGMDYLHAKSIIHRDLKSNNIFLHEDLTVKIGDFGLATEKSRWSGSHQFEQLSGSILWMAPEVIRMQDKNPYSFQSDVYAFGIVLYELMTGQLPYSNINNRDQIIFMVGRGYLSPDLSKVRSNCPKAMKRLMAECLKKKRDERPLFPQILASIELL
Experimental: Human BRAF gene was cloned by PCR using human Testis cDNA library (Clontech) as a template. The primer used for PCR was prepared from base sequence (Genbank Accession No.: NM_004333) information of BRAF gene by adding a base sequence encoding flag peptide and a recognition sequence of the restriction enzyme to area encoding the BRAF kinase domain region, so that the protein contains an N-terminal. Flag. The primer base sequence is shown below.
The PCR reaction was conducted using Pyrobest (Takara Shuzo Co., Ltd). The obtained PCR product was electrophoresed on agarose gel (1%), the DNA fragment amplified by PCR was recovered from the gel, and then digested with restriction enzymes EcoRI and SalI. The DNA treated with the restriction enzymes was electrophoresed on agarose gel (1%), and the obtained DNA fragment was recovered. The recovered DNA fragment was ligated to plasmid pFASTBAC1 (Invitrogen) digested with restriction enzymes EcoRI and SalI to give expression plasmid pFB-BRAF, and the base sequence of the insert fragment was confirmed. In addition, mutation was introduced into V600E using a Quick change Site Directed Mutagenesis kit (Stratagene). The base sequences of the primers used are shown in the following.
The obtained plasmid was sequenced to confirm the introduction of mutation into V600E. The DNA was digested with restriction enzymes EcoRI and SalI, DNA treated with the restriction enzymes was electrophoresed on agarose gel (1%), and the obtained DNA fragment was recovered. The recovered DNA fragment was ligated to plasmid pFASTBAC1 (Invitrogen) digested with restriction enzymes EcoRI and SalI to give expression plasmid pFB-V600E.
Using BAC-TO-BAC Baculovirus Expression System (Invitrogen), virus stock BAC-V600E of recombinant baculovirus was prepared.
SF-21 cells were sown at 1×10^6 cells/mL to Sf-900II SFM medium (1 L, Invitrogen) containing 10% fetal bovine serum (Trace), 50 mg/L Gentamicin (Invitrogen) and 0.1% Pluronic F-68 (Invitrogen), and shaking culture was performed using a 2 L volume Erlenmeyer flask at 27° C., 100 rpm. After culturing for 24 hr, recombinant baculovirus BAC-V600E (13.4 mL) was added to the mixture, and the mixture was further cultured for 3 days. The culture medium was centrifuged at 2,000 rpm for 5 min to give virus-infected cells. The infected cells were washed with a phosphate buffered saline (Invitrogen), centrifuged under the same conditions, and the cells were preserved at −80° C. The cryopreserved cells were thawed in ice, suspended in buffer A (50 mM Tris buffer (30 mL, pH 7.4) containing 20% glycerol, 0.15 M NaCl) supplemented with Complete Protease Inhibitor (Boehringer), and ruptured 3 times with a Polytron homogenizer (Kinematica) at 20,000 rpm for 30 sec. The ruptured medium was clarified by centrifugation at 40,000 rpm for 30 min and filtered with a 0.45 μm filter. The filtrate was passed through a column packed with Anti-FLAG M2 Affinity Gel (4 mL, Sigma) at a flow rate of about 0.5 mL/min. The column was washed with buffer A, and eluted with buffer A containing 100 μg/mL of FLAG peptide. The buffer of this eluate was exchanged using NAP25 column (Amersham Bioscience) equilibrated with buffer A and the fractions were cryopreserved at −80° C.
A test compound (2.5 μL) dissolved in dimethyl sulfoxide (DMSO) was added to 37.5 μL of a reaction mixture (25 mM HEPES (pH 7.5), 10 mM magnesium acetate, 1 mM dithiothreitol) containing BRAF (V600E) enzyme (30 ng) and recombinant type protein GST-MEK1 (K96R) 250 ng, and the mixture was incubated at room temperature for 10 min. ATP solution (10 μL, 2.5 μM ATP, 0.1 μCi [γ-^32P]ATP) was added to the obtained mixture, and the mixture was reacted at room temperature for 20 min. The reaction was quenched by adding 50 μL of ice-cooled. 20% trichloroacetic acid (Wako Pure Chemical Industries, Ltd.) to the reaction mixture. […]

[1] = system: human colon cancer cell HT-29; experiment: Colon cancer cell HT-29 growth suppressive action in vitro; assay type: cell-based; conditions: 72 h, HT-29 cells, 3 days culture, SRB staining of cell protein
Experimental: A cell suspension (100 μL, 3,000 cells/well) of human colon cancer cell HT-29 (purchased from ATCC) was plated in a 96-well plate, and the cells were cultured at 37° C. in a 5% carbon dioxide gas incubator. The next day, 2-fold serial dilution of each test compound solution (diluted from maximum concentration 20 μM) (100 μL) was added, and the cells were cultured for 3 days. The culture medium containing the test compound was removed, and the cells were washed with phosphate buffer (PBS). A 50% trichloroacetic acid solution was added to the final concentration of 10% (v/v), and the mixture was stood overnight at 4° C., whereby the cells were fixed to the plate. Then, a dye SRB 0.4% (w/v) solution (dissolved in 1% acetic acid) was added at 50 μl/well, whereby the cell protein was fixed and stained (Skehan et al., Journal Of National Cancer Institute, vol. 82, pp. 1107-1112, 1990). The cells were washed 3 times with 1% acetic acid solution (200 μL/well), and 100 μL of an extract (10 mM Tris buffer) was added to extract the dye. The absorbance at an absorption wavelength […] was measured, and cell amount was measured as a protein amount. Taking the protein amount of the control group free of the test compound solution as 100%, the proportion of the residual protein amount of each treatment group was determined and the concentration of the compound necessary for suppressing the residual cell amount to 50% of the control (IC50 value) was calculated.

inhibition at 1 µM (BRAF (V600E) kinase) [%]	IC50 [1] [nM]	Compound
100	< 500	CC(C)(C#N)c1cccc(C(=O)Nc2cccc(Oc3ccc4nc(NC(=O)C5CC5)sc4c3)c2)c1 [Example A12, 3-(1-cyano-1-methylethyl)-N-[3-({2-[(cyclopropylcarbonyl)amino]-1,3-benzothiazol-6-yl}oxy)phenyl]benzamide]
–	< 500	CC(=O)Nc1nc2ccc(Oc3ccc(C)c(NC(=O)c4cccc(C(C)(C)C#N)c4)c3)cc2s1 [Example A49, N-(5-{[2-(acetylamino)-1,3-benzothiazol-6-yl]oxy}-2-methylphenyl)-3-(1-cyano-1-methylethyl)benzamide]
–	< 500	COc1ccc(NC(=O)c2cccc(C(C)(C)C#N)c2)cc1Oc1ccc2nc(NC(=O)CN3CCN(C)CC3)sc2c1 [Example A23, 3-(1-cyano-1-methylethyl)-N-{4-methoxy-3-[(2-{[(4-methylpiperazin-1-yl)acetyl]amino}-1,3-benzothiazol-6-yl)oxy]phenyl}benzamide]
–	< 500	O=C(Nc1cccc(Oc2ccc3nc(NC(=O)C4CC4)sc3c2)c1)c1cccc(C(F)(F)F)c1 [Example A2, N-[3-({2-[(cyclopropylcarbonyl)amino]-1,3-benzothiazol-6-yl}oxy)phenyl]-3-(trifluoromethyl)benzamide]
